Experimental findings from patent publication US20040254178A1, “Substituted heterocyclic compounds and methods of use” (Amgen Inc., priority 2003, published 2004) are described below.

This experiment concerns LPS induced TNF release. Kind of experiment: Lipopolysaccharide-Activated THP1 Cell TNF Production Assay. The format is cell-based. As to conditions: Homo sapiens, THP-1, THP1 cells, 3 h at 37° C., secreted TNF-α read by ECL. Here is the method: Lipopolysaccharide-Activated THP1 Cell TNF Production Assay
THP1 cells are resuspended in fresh THP1 media (RPMI 1640, 10% heat-inactivated FBS, 1XPGS, 1XNEAA, plus 30 μM βME) at a concentration of 1E6/mL. One hundred microliters of cells per well are plated in a polystyrene 96-well tissue culture. One microgram per mL of bacterial LPS is prepared in THP1 media and is transferred to the wells. Test compounds are dissolved in 100% DMSO and are serially diluted 3 fold in a polypropylene 96-well microtiter plate (drug plate). HI control and LO control wells contain only DMSO. One microliter of test compound from the drug plate followed by 10 μL of LPS are transferred to the cell plate. The treated cells are induced to synthesize and secrete TNF-α at 37° C. for 3 h. Forty microliters of conditioned media are transferred to a 96-well polypropylene plate containing 110 μL of ECL buffer (50 mM Tris-HCl pH 8.0, 100 mM NaCl, 0.05% Tween 20, 0.05% NaN3 and 1% FBS) supplemented with 0.44 nM MAB610 monoclonal Ab (R&D Systems), 0.34 nM ruthenylated AF210NA polyclonal Ab (R&D Systems) and 44 μg/mL sheep anti-mouse M280 Dynabeads (Dynal). After a 2 h incubation at room temperature with shaking, the reaction is read on the ECL M8 Instrument (IGEN Inc.). A low voltage is applied to the ruthenylated TNF-α immune complexes, which in the presence of TPA (the active component in Origlo), results in a cyclical redox reaction generating light at […]. The amount of secreted TNF-α in the presence of compound compared with that in the presence of DMSO vehicle alone (HI control) is calculated using the formula: % control (POC)=(cpd−average LO)/(average HI−average LO)*100. Data (consisting of POC and inhibitor concentration in μM) is fitted to a 4-parameter equation (y=A+((B−A)/(1+((x/C)^D))), where A is the minimum y (POC) value, B is the maximum y (POC), C is the x (cpd concentration) at the point of inflection and D is the slope factor) using a Levenburg-Marquardt non-linear regression algorithm.

`Cc1c(C2CCN(C(=O)[C@@H](C)O)CC2)nnc(-c2cccc(C(F)(F)F)c2)c1-c1ccnc(NC(C)c2ccccc2)n1` (stereo in doubt) [2-Hydroxy-1-{4-[4-methyl-5-[2-(1-phenyl-ethylamino)-pyrimidin-4-yl]-6-(3-trifluoromethyl-phenyl)-pyridazin-3-yl]-piperidin-1-yl}-propan-1-one]: the IC50 – broadly, the concentration at which inhibition is half-maximal – is no more than 20 µM.

In turn, `Cc1c(C2CCN(C(=O)OCc3ccccc3)CC2)nnc(-c2cccc(C(F)(F)F)c2)c1-c1ccnc(NC(C)c2ccccc2)n1` (stereo not drawn) [4-[4-Methyl-5-[2-(1-phenyl-ethylamino)-pyrimidin-4-yl]-6-(3-trifluoromethylphenyl)-pyridazin-3-yl]-piperidine-1-carboxylic acid benzyl ester] yielded an IC50 of no more than 20 µM.

In turn, `Cc1c(C2CCNCC2)nnc(-c2cccc(C(F)(F)F)c2)c1-c1ccnc(NC(C)c2ccccc2)n1` (stereo not drawn) [{4-[5-Methyl-6-piperidin-4-yl-3-(3-trifluoromethyl-phenyl)-pyridazin-4-yl]-pyrimidin-2-yl}-(1-phenyl-ethyl)-amine] displayed an IC50 of no more than 20 µM.
